According to the supplement of paper PMC11451515:

Tested on: SEM cells
Experiment: cell viability relative to DMSO control; higher = less cytotoxic
Details: 48 h
In short: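 Three leukemia lines were tested: NOMO1 and SEM at 500 cells/well and P12-Ichikawa at 1000 cells/well. Each was adapted for at least four passages in each medium and seeded in 5 μl in 1536-well plates, and library compounds in DMSO were pin-dosed from 47 μM to 0.79 nM in 11 threefold steps. After 48 h at 37°C, CellTiter-Glo One luminescence was read. Viability is a percentage relative to DMSO wells on each plate, with cell-free wells as background.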

[1] = HPLM + 10% dialyzed FBS, 0.000781 µM
[2] = HPLM + 10% dialyzed FBS, 0.00234 µM
[3] = HPLM + 10% dialyzed FBS, 0.00702 µM
[4] = HPLM + 10% dialyzed FBS, 0.0211 µM
[5] = HPLM + 10% dialyzed FBS, 0.0632 µM
[6] = HPLM + 10% dialyzed FBS, 0.19 µM
[7] = HPLM + 10% dialyzed FBS, 0.569 µM
[8] = HPLM + 10% dialyzed FBS, 1.71 µM
[9] = HPLM + 10% dialyzed FBS, 5.12 µM
[10] = HPLM + 10% dialyzed FBS, 15.4 µM
[11] = HPLM + 10% dialyzed FBS, 46.1 µM
[12] = RPMI 5 mM glucose + 10% FBS, 0.000781 µM
[13] = RPMI 5 mM glucose + 10% FBS, 0.00234 µM
[14] = RPMI 5 mM glucose + 10% FBS, 0.00702 µM
[15] = RPMI 5 mM glucose + 10% FBS, 0.0211 µM
[16] = RPMI 5 mM glucose + 10% FBS, 0.0632 µM
[17] = RPMI 5 mM glucose + 10% FBS, 0.19 µM
[18] = RPMI 5 mM glucose + 10% FBS, 0.569 µM
[19] = RPMI 5 mM glucose + 10% FBS, 1.71 µM
[20] = RPMI 5 mM glucose + 10% FBS, 5.12 µM
[21] = RPMI 5 mM glucose + 10% FBS, 15.4 µM
[22] = RPMI 5 mM glucose + 10% FBS, 46.1 µM
[23] = RPMI 5 mM glucose + 10% dialyzed FBS, 0.000781 µM
[24] = RPMI 5 mM glucose + 10% dialyzed FBS, 0.00234 µM
[25] = RPMI 5 mM glucose + 10% dialyzed FBS, 0.00702 µM
[26] = RPMI 5 mM glucose + 10% dialyzed FBS, 0.0211 µM
[27] = RPMI 5 mM glucose + 10% dialyzed FBS, 0.0632 µM
[28] = RPMI 5 mM glucose + 10% dialyzed FBS, 0.19 µM
[29] = RPMI 5 mM glucose + 10% dialyzed FBS, 0.569 µM
[30] = RPMI 5 mM glucose + 10% dialyzed FBS, 1.71 µM
[31] = RPMI 5 mM glucose + 10% dialyzed FBS, 5.12 µM
[32] = RPMI 5 mM glucose + 10% dialyzed FBS, 15.4 µM
[33] = RPMI 5 mM glucose + 10% dialyzed FBS, 46.1 µM

Compound | cell viability [1] [%] | cell viability [2] [%] | cell viability [3] [%] | cell viability [4] [%] | cell viability [5] [%] | cell viability [6] [%] | cell viability [7] [%] | cell viability [8] [%] | cell viability [9] [%] | cell viability [10] [%] | cell viability [11] [%] | cell viability [12] [%] | cell viability [13] [%] | cell viability [14] [%] | cell viability [15] [%] | cell viability [16] [%] | cell viability [17] [%] | cell viability [18] [%] | cell viability [19] [%] | cell viability [20] [%] | cell viability [21] [%] | cell viability [22] [%] | cell viability [23] [%] | cell viability [24] [%] | cell viability [25] [%] | cell viability [26] [%] | cell viability [27] [%] | cell viability [28] [%] | cell viability [29] [%] | cell viability [30] [%] | cell viability [31] [%] | cell viability [32] [%] | cell viability [33] [%]
C=C1CCC2[C@](C)(CO)C(O)CC[C@]2(C)C1C/C=C1/C(=O)OCC1O (some centres undefined) | 122 | 122 | 112 | 126 | 116 | 111 | 109 | 105 | 103 | 117 | 93.3 | 125 | 115 | 118 | 97.8 | 108 | 99.2 | 88.3 | 87.1 | 81.5 | 84.8 | 85.6 | 129 | 120 | 121 | 115 | 113 | 116 | 109 | 106 | 109 | 96.3 | 92.3
CCC(=O)NC[C@H](Cc1ccc(OCCc2nc(-c3ccccc3)oc2C)cc1)N/C(C)=C\C(=O)c1ccc(C(F)(F)F)cc1 | 68.8 | 106 | 104 | 88.3 | 91 | 109 | 4.25 | 81.6 | 82.6 | 50.4 | 49.3 | 83.1 | 97.2 | 120 | 105 | 98 | 120 | 4.86 | 83.4 | 99.4 | 51.9 | 67.2 | 60.2 | 97.7 | 113 | 118 | 120 | 109 | 5.19 | 93 | 94.5 | 43.9 | 65.5
Clc1ccc(CCC(Cn2ccnc2)Sc2c(Cl)cccc2Cl)cc1 (centres undefined) | 73 | 71.5 | 77.3 | 83.5 | 72.8 | 95 | 76.3 | 77.3 | 80.1 | 76.8 | 61.2 | 78.7 | 88 | 97.7 | 89.7 | 85.7 | 83.6 | 101 | 100 | 92.6 | 86.1 | 52.5 | 78.8 | 88.7 | 100 | 92.5 | 82 | 103 | 89.4 | 77.4 | 76.9 | 85.3 | 57.3
COCCCC/C(=N\OCCN)c1ccc(C(F)(F)F)cc1 | 86.4 | 100 | 75.7 | 80.8 | 92 | 76.1 | 83.9 | 96.9 | 75.4 | 77 | 28.1 | 94.3 | 86.1 | 79.7 | 94.5 | 92.7 | 85.9 | 87.2 | 92 | 74.6 | 73.7 | 35.6 | 105 | 103 | 88.7 | 95.8 | 111 | 100 | 91.6 | 106 | 99.4 | 93.1 | 52.3
OC1CCC(CC1)N2\C=N/C3=C(C2=N)C(=C([N]3CC4=CC=CC=C4)C5=CC=CC=C5)C6=CC=CC=C6 (centres undefined) | 117 | 123 | 134 | 116 | 113 | 98.9 | 46.8 | 47.2 | 38.6 | 39 | 41 | 110 | 117 | 131 | 108 | 102 | 97.6 | 47.4 | 39.4 | 37 | 37.8 | 24 | – | – | – | – | – | – | – | – | – | – | –
NC(=O)N1CCC(CC(=O)N2CCC([C@H]3c4ncc(Br)cc4CCc4cc(Cl)cc(Br)c43)CC2)CC1 | 106 | 99.3 | 114 | 124 | 111 | 118 | 72.5 | 57.1 | 48.6 | 45.7 | 34.8 | 114 | 122 | 120 | 129 | 111 | 122 | 82.4 | 66.3 | 46 | 44.4 | 24.1 | 98.1 | 109 | 110 | 101 | 97.2 | 114 | 95.9 | 84.4 | 56.1 | 58 | 17.8
CC(C)C[C@H](CC(=O)O)C(=O)N[C@@H](Cc1c[nH]c2ccccc12)C(=O)N[C@@H](C)c1ccccc1 | 96.1 | 100 | 119 | 113 | 106 | 105 | 7.87 | 92.1 | 112 | 73.1 | 54 | 96.1 | 112 | 125 | 116 | 110 | 122 | 8.87 | 86.2 | 96.9 | 65.9 | 54.3 | 77.7 | 90.4 | 97.3 | 113 | 89.6 | 87.2 | 8.39 | 79.4 | 90.2 | 53.7 | 46.4
CN(C)CCc1c[nH]c2ccc(Cn3cncn3)cc12 | 76.1 | 88.7 | 97.4 | 96.4 | 98 | 48.5 | 55 | 23 | 9.54 | 8.01 | 7.53 | 86 | 91 | 86.9 | 84.9 | 75.8 | 30.7 | 36.3 | 10.4 | 7.9 | 7.16 | 6.13 | 91.4 | 96.1 | 88.9 | 97.5 | 79.3 | 43.4 | 50.7 | 18.2 | 9.37 | 8.33 | 6.69
C[C@H](NC(=O)[C@@H](O)c1cc(F)cc(F)c1)C(=O)N[C@@H]1C(=O)N(C)c2ccccc2-c2ccccc21 | – | – | – | – | – | – | – | – | – | – | – | 120 | 121 | 120 | 135 | 122 | 128 | 107 | 115 | 111 | 121 | 85.9 | – | – | – | – | – | – | – | – | – | – | –
Cc1nnc(C(=O)NC(C)(C)c2nc(C(=O)NCc3ccc(F)cc3)c(O)c(=O)n2C)o1 | 107 | 111 | 116 | 102 | 101 | 123 | 113 | 108 | 104 | 108 | 107 | 96.7 | 101 | 99.2 | 120 | 125 | 93.8 | 107 | 80.8 | 90.9 | 97 | 111 | 105 | 106 | 109 | 122 | 109 | 117 | 107 | 109 | 93.9 | 98.9 | 110
CN1CCC(CNc2ccc3ncc(-c4cccc(OC(F)(F)F)c4)n3n2)CC1 | 107 | 102 | 104 | 95.6 | 89.1 | 89.7 | 74.5 | 49.7 | 41.6 | 32.2 | 5.1 | 109 | 110 | 113 | 97.4 | 96.4 | 97.6 | 78.3 | 52.9 | 42.5 | 35.5 | 6.26 | 93.3 | 109 | 92.8 | 98.7 | 99.4 | 87.3 | 77.3 | 42.3 | 32.4 | 30.4 | 6.78
CO[C@H]1C[C@@H]2CC[C@@H](C)[C@@](O)(O2)C(=O)C(=O)N2CCCC[C@H]2C(=O)O[C@H]([C@@H](C)C[C@@H]2CC[C@@H](O)[C@H](OC)C2)CC(=O)[C@H](C)/C=C(\C)[C@@H](O)[C@@H](OC)C(=O)[C@H](C)C[C@H](C)/C=C/C=C/C=C/1C | 95.4 | 95.3 | 88 | 83.2 | 86.9 | 81.7 | 81.9 | 74.2 | 80.1 | 79.5 | 61.3 | 98.6 | 84.3 | 89.4 | 94.9 | 80.6 | 77.3 | 75.7 | 80.7 | 68 | 70.6 | 60.6 | 96.9 | 87.2 | 102 | 85.7 | 89.8 | 81.3 | 85.5 | 84.4 | 81.6 | 81.7 | 52.6
COc1cc(N2CCN(C)CC2)ccc1Nc1nc(N)c(C(=O)c2c(Cl)cccc2Cl)s1 | 109 | 118 | 124 | 111 | 108 | 116 | 111 | 93.7 | 88.9 | 78.4 | 24.5 | 118 | 121 | 117 | 108 | 101 | 109 | 105 | 110 | 85.7 | 68.4 | 3.88 | 112 | 105 | 122 | 116 | 116 | 114 | 110 | 106 | 122 | 85.7 | 13.3
CCN1\C=C(C(O)=O)/C(=O)C2=C1C(=C(N3CCNC(C)C3)C(=C2)F)F (centres undefined) | 92.5 | 99 | 106 | 117 | 109 | 95.3 | 116 | 110 | 118 | 97.3 | 112 | 99.8 | 95 | 111 | 111 | 110 | 100 | 108 | 110 | 112 | 107 | 96.4 | 93.4 | 105 | 116 | 119 | 133 | 107 | 125 | 117 | 102 | 97 | 119
CC(=O)OCC(=O)[C@@]1(O)CC[C@H]2[C@@H]3CCC/4=C/C(=O)/C=C\[C@]4(C)[C@H]3[C@@H](O)C[C@]12C | 117 | 106 | 104 | 112 | 103 | 78.8 | 69.3 | 52.7 | 48.2 | 88 | 90.5 | 121 | 124 | 130 | 124 | 122 | 99.3 | 110 | 81.4 | 60.4 | 128 | 121 | – | – | – | – | – | – | – | – | – | – | –
Cc1cnc(Nc2cccc(CN3CCOCC3)c2)nc1Nc1cccc([S+](=O)([O-])NC(C)(C)C)c1 | 77.4 | 80.3 | 97.3 | 91.7 | 74.4 | 72.1 | 84.7 | 36.4 | 15.7 | 69.1 | 53.6 | 79.7 | 88.8 | 94.5 | 110 | 82.1 | 87.9 | 79 | 58 | 9.88 | 74 | 21.9 | 79.6 | 93.5 | 93.5 | 84.9 | 72.5 | 64 | 81.8 | 17.9 | 9.6 | 66.4 | 39.3
